Data: paper PMC7822874, “Chemoprotective antimalarials identified through quantitative high-throughput screening of Plasmodium blood and liver stage parasites” (Scientific Reports, 2021)
Where “and” joins values, the source holds several entries; their conditions need not be identical. Equal entries are not always repeated.

Experiments:
[1] = in vitro; details: human, HepG2 cells; n = 1
[2] = tested on: P. falciparum Dd2 Cytb V259L; test: SYBR Green ABS proliferation assay, NCGC00473217 selected clone F06; format: cell-based, Plasmodium falciparum; details: Plasmodium falciparum, DD2, […]; averaged from three independent replicates; top concentration 29 µM; read-out: Average AC50 (Log[M]), NCGC00473217 clone F06 (Cytb V259L) (converted)
Outline: (§1)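 Drug-selected P. falciparum Dd2 clones carrying Cytb mutations, obtained by limiting-dilution cloning, grown in RBCs at 37 °C under 5% CO2/5% O2/90% N2. Growth read by SYBR Green-I fluorescence at 72 h and normalized to controls.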

[3] = tested on: P. falciparum Dd2 (clone B2) asexual blood stage parasites; test: P. falciparum Dd2 asexual blood stage SYBR Green-I 72 h proliferation assay (qHTS); format: cell-based, Plasmodium falciparum; details: Plasmodium falciparum, DD2, Dd2 parental; Hill fit, averaged from three independent replicates; top concentration 29 µM; read-out: Average AC50 (Log[M]), Dd2 (converted)
[4] = tested on: P. falciparum Dd2 Cytb G131S; test: SYBR Green ABS proliferation assay, NCGC00374598 selected clone C11; format: cell-based, Plasmodium falciparum; details: Plasmodium falciparum, DD2, […]; averaged from three independent replicates; top concentration 29 µM; read-out: Average AC50 (Log[M]), NCGC00374598 clone C11 (Cytb G131S) (converted)
Outline: as §1

[5] = tested on: P. falciparum Dd2 Cytb A122D; test: SYBR Green ABS proliferation assay, NCGC00473217 selected clone F12; format: cell-based, Plasmodium falciparum; details: Plasmodium falciparum, DD2, […]; averaged from three independent replicates; top concentration 29 µM; read-out: Average AC50 (Log[M]), NCGC00473217 clone F12 (Cytb A122D) (converted)
Outline: as §1

[6] = tested on: P. falciparum Dd2 Cytb F123L; test: SYBR Green ABS proliferation assay, NCGC00473217 selected clone G08; format: cell-based, Plasmodium falciparum; details: Plasmodium falciparum, DD2, […]; averaged from three independent replicates; top concentration 29 µM; read-out: Average AC50 (Log[M]), NCGC00473217 clone G08 (Cytb F123L) (converted)
Outline: as §1

[7] = tested on: T1, Plasmodium falciparum Dd2-attB-ScDHODH (transgenic line expressing yeast DHODH), asexual blood stages; test: organism not typed; parameters: replicate k of 3 (each line is one of three independent assays; the three lines of one compound and parasite line follow each other); details: 72 h, n = 1
T1 construct: Dd2-attB-ScDHODH, the transgenic line that expresses yeast DHODH
Outline: (§2)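 Both lines were tested side by side with selected compounds, repeated in three independent assays. Differences between parental and ScDHODH-expressing parasites were then assessed with a two-sided Student's t-test.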

[8] = tested on: T2, Plasmodium falciparum Dd2-attB (parental line), asexual blood stages; test: microbe, parasite or virus in culture; parameters: replicate k of 3 (each line is one of three independent assays; the three lines of one compound and parasite line follow each other); details: 72 h; n = 1
T2 construct: Dd2-attB, the isogenic parental line
Outline: as §2

Row | SMILES | CC50 at 48 h [1] [µM] | AC50 [2] [M] | AC50 [3] [M] | AC50 [4] [M] | AC50 [5] [M] | AC50 [6] [M] | Individual replicates / Log AC50 (M) [7] | Individual replicates / Log AC50 (M) [8] | AC50 ([7]; read-out: Individual replicates / Log AC50 (converted)) [µM]
1 | c1csc(-c2cn3ccc4ccccc4c3n2)c1 [MLS000711806-01] | 15.3 |  |  |  |  |  |  |  | 
2 | CCCCC(=O)NC(c1cccs1)c1cc(Cl)c2cccnc2c1O (stereo not drawn) [MLS000714525-01] | 13.7 |  |  |  |  |  |  |  | 
3 | Cc1nn2c(NCc3ccccn3)cc(C(C)C)nc2c1-c1ccccc1 [MLS000762881-01] | 12.2 |  |  |  |  |  |  |  | 
4 | CCCN1C(CC(C)C)=N[S+](=O)([O-])c2cc(NC(=O)c3cnn4cccnc34)ccc21 [NCGC00521136-01] |  | 8.28e-06 | 1.22e-05 | 7.96e-06 | 6.84e-06 | 1.17e-05 |  |  | 
5 | CCCN1C(CC(C)C)=N[S+](=O)([O-])c2cc(NC(=O)COc3ccccc3)ccc21 [NCGC00521094-01] |  | 6.84e-06 | 7.67e-06 | 8.28e-06 | 1.36e-05 | 6.1e-06 |  |  | 
6 | CCCN1C(CC(C)C)=N[S+](=O)([O-])c2cc(NC(=O)C34CC5CC(CC(C5)C3)C4)ccc21 [NCGC00521891-01] |  | 1.12e-06 | 3.56e-06 | 2.82e-07 | 1.89e-06 | 1e-06 |  |  | 
7 | CCCN1C(CC(C)C)=N[S+](=O)([O-])c2cc(NC(=O)c3ccco3)ccc21 [NCGC00473219-02] |  | 5.22e-06 | 3.17e-06 | 3.17e-06 | 3.56e-06 | 3.17e-06 | -5.7486 Log AC50 (M) and -5.5986 Log AC50 (M) and -5.8986 Log AC50 (M) | -6.2986 Log AC50 (M) and -5.9986 Log AC50 (M) and -6.0986 Log AC50 (M) | 
8 | CCCN1C(CC(C)C)=N[S+](=O)([O-])c2cc(NC(=O)c3nccs3)ccc21 [NCGC00521040-01] |  | 1.31e-05 | 9.29e-06 | 8.28e-07 | 7.1e-06 | 6.7e-06 |  |  | 
9 | CCCN1C(CC(C)C)=N[S+](=O)([O-])c2cc(NC(=O)c3ccccn3)ccc21 [NCGC00521133-01] |  | 7.67e-06 | 9.29e-06 | 1.04e-06 | 1.89e-06 | 1.04e-05 |  |  | 
10 | CCCN1C(CC(C)C)=N[S+](=O)([O-])c2cc(NC(=O)c3cc4ccncc4[nH]3)ccc21 [NCGC00521877-01] |  | 7.67e-07 | 2.24e-06 | 1.42e-06 | 7.67e-07 | 9.29e-07 |  |  | 
11 | CCCN1C(CC(C)C)=N[S+](=O)([O-])c2cc(NC(=O)C3CCC3)ccc21 [NCGC00521095-01] |  | 2.99e-06 | 3.17e-06 | 3.36e-07 | 1e-05 | 6.7e-06 |  |  | 
12 | CCCN1C(CC(C)C)=N[S+](=O)([O-])c2cc(NC(=O)c3cccc(F)c3)ccc21 [NCGC00523538-01] |  | 1e-06 | 3.85e-06 | 2.08e-06 | 2.72e-06 | 1.12e-05 |  |  | 
13 | CCCN1C(CC(C)C)=N[S+](=O)([O-])c2cc(NC(=O)c3ccccc3OC(F)(F)F)ccc21 [NCGC00531535-01] |  | 9.29e-06 | 1.59e-05 | 8.93e-06 | 1.08e-05 | 1.04e-05 |  |  | 
14 | CCCN1C(CC(C)C)=N[S+](=O)([O-])c2cc(NC(=O)c3ccc(C)o3)ccc21 [NCGC00510048-01] |  | 7.38e-06 | 9.66e-06 | 7.38e-06 | 7.96e-06 | 6.58e-06 | -5.1486 Log AC50 (M) | -5.5486 Log AC50 (M) and -5.3486 Log AC50 (M) and -5.1986 Log AC50 (M) | 7.1
